How the values were obtained:
Set-up in all cases: species or system A/J mice
1-10 mAb = conditions: free analogue 0.00035-200 μM inhibiting binding of mAb 1-10 to Oua-BGG
Protocol: (§1) Competition ELISA was used first to determine the relative affinity of each mAb for Oua and Dig. The 96-well PVC plates were coated with 50 μl of 5 μg/ml Oua-BGG in PBSA. First we determined the Ab concentration which was not in excess of immobilized antigen. Using the direct binding assay described above, the concentration of Ab at which 50% binding was achieved was ascertained. Inhibition of binding of Abs to Oua-BGG was determined by adding 25 μl Ab (concentrations as determined above) and 25 μl of free Oua (0.001-200 μM, 2-fold dilutions). Percent inhibition is the ratio (OD450 in the presence of 1% BSA−OD450 in the presence of Oua)/(OD450 in the presence of 1% BSA)×100. The relative affinity (IC50) is the Oua concentration that inhibits 50% of the binding of Ab to Oua-BGG.
(§2) Competition ELISA was used to determine the cross reactivity of the mAbs with different digitalis glycosides (Oua, Dig, gitoxin and digitoxin and their derivatives listed in Tables I and II) and with endogenous steroid hormones (cortisone, corticosterone and progesterone). In these assays binding of mAbs to Oua-BGG was determined in the presence or absence of various concentrations (0.00035-200 μM) of free digitalis glycosides and steroid hormones as described above.
(§3) Inhibition assays were performed to identify clones that produce mAbs, the binding of which to Oua-BGG could be inhibited with free Oua at μM concentrations. Abs were titrated in direct binding assays to determine the concentration equivalent to 35-50% binding to Oua-BGG. Binding of Abs to Oua-BGG was determined in the presence or absence of 0.00035-200 μM of free Oua. Ab binding was detected using HRP-goat anti-mouse Ab. […] Percentage inhibition was calculated as described in Materials and Methods.

26-10 mAb = conditions: free analogue 0.00035-200 μM inhibiting binding of mAb 26-10 to Oua-BGG
Protocol: as §1, §2, §3

7-1 mAb = conditions: free analogue 0.00035-200 μM inhibiting binding of mAb 7-1 to Oua-BGG
Protocol: as §1, §2, §3

5A12 mAb = conditions: free analogue 0.00035-200 μM inhibiting binding of mAb 5A12 to Oua-BGG
Protocol: as §1
as §2, with “above. […]” for “above.”

SMILES	IC50 (1-10 mAb) [µM]	IC50 (26-10 mAb) [µM]	IC50 (7-1 mAb) [µM]	IC50 (5A12 mAb) [µM]
CC(=O)O[C@H]1C[C@]2(O)[C@@H]3CC[C@@H]4C[C@@H](O[C@H]5C[C@H](O)[C@H](O[C@H]6C[C@H](O)[C@H](O[C@H]7C[C@H](O)[C@H](O)[C@@H](C)O7)[C@@H](C)O6)[C@@H](C)O5)CC[C@]4(C)[C@H]3CC[C@]2(C)[C@H]1C1=CC(=O)OC1 [16-acetylgitoxin]	> 100	0.5	> 100	> 100
CC(=O)O[C@H]1CC[C@]2(C=O)[C@H]3CC[C@]4(C)[C@@H](C5=CC(=O)OC5)CC[C@]4(O)[C@@H]3CC[C@]2(O)C1 [Acetylstrophanthidin]	6	0.2	6	2
CO[C@@H]1[C@H](O)[C@@H](O[C@@H]2C[C@H]3CC[C@@H]4[C@H](CC[C@]5(C)[C@@H](C6=CC(=O)OC6)CC[C@]45O)[C@@]3(C)[C@H](O)C2)O[C@@H](C)[C@@H]1O [Acovenoside]	8	0.2	8	5
C[C@@H]1O[C@@H](O[C@H]2CC[C@]3(C=O)[C@H]4CC[C@]5(C)[C@@H](C6=CC(=O)OC6)CC[C@]5(O)[C@@H]4CC[C@]3(O)C2)[C@H](O)[C@H](O)[C@H]1O [Convallatoxin]	3	0.1	3	2
C[C@]12C[C@H](O)[C@H]3[C@@H](CCC4=CC(=O)CC[C@@]43C)[C@@H]1CC[C@@H]2C(=O)CO [Corticosterone]	> 100	> 100	> 100	> 100
C[C@]12CCC(=O)C=C1CC[C@@H]1[C@@H]2C(=O)C[C@@]2(C)[C@H]1CC[C@]2(O)C(=O)CO [Cortisone]	> 100	100	> 100	> 100
C[C@]12CC[C@H](O)C[C@H]1CC[C@@H]1[C@@H]2CC[C@]2(C)[C@@H](C3=CC(=O)OC3)CC[C@]12O [Digitoxigenin]	4	0.04	4	4
C[C@H]1O[C@@H](O[C@H]2[C@@H](O)C[C@H](O[C@H]3[C@@H](O)C[C@H](O[C@H]4CC[C@@]5(C)[C@H](CC[C@@H]6[C@@H]5CC[C@]5(C)[C@@H](C7=CC(=O)OC7)CC[C@]65O)C4)O[C@@H]3C)O[C@@H]2C)C[C@H](O)[C@@H]1O [Digitoxin]	3	0.02	3	3
CC(=O)O[C@H]1CC[C@@]2(C)[C@H](CC[C@@H]3[C@@H]2C[C@@H](OC(C)=O)[C@]2(C)[C@@H](C4=CC(=O)OC4)CC[C@]32O)C1 [Digoxigenin-3,12-diacetate]	> 100	6	> 100	> 100
C[C@H]1O[C@@H](O[C@H]2[C@@H](O)C[C@H](O[C@H]3[C@@H](O)C[C@H](O[C@H]4CC[C@@]5(C)[C@H](CC[C@@H]6[C@@H]5C[C@@H](O)[C@]5(C)[C@@H](C7=CC(=O)OC7)CC[C@]65O)C4)O[C@@H]3C)O[C@@H]2C)C[C@H](O)[C@@H]1O [Digoxin]	> 100	0.006	> 100	> 100
CC(=O)OC1CCC2(C)C(CCC3C2CCC2(C)C(C4=CC(=O)OC4)C(OC(C)=O)CC32O)C1 (stereo not shown) [Gitoxigenin-3,16-diacetate]	> 100	> 100	> 100	> 100
C[C@H]1O[C@@H](O[C@H]2[C@@H](O)C[C@H](O[C@H]3[C@@H](O)C[C@H](O[C@H]4CC[C@@]5(C)[C@H](CC[C@@H]6[C@@H]5CC[C@]5(C)[C@@H](C7=CC(=O)OC7)[C@@H](O)C[C@]65O)C4)O[C@@H]3C)O[C@@H]2C)C[C@H](O)[C@@H]1O [Gitoxin]	> 100	1.5	> 100	100
C[C@H]1O[C@@H](O[C@H]2CC[C@]3(C=O)[C@H]4CC[C@]5(C)[C@@H](C6=CC(=O)OC6)CC[C@]5(O)[C@@H]4CC[C@]3(O)C2)C[C@H](O)[C@@H]1O [Helveticoside]	150	0.2	150	150
CC(=O)O[C@H]1C[C@]2(O)[C@@H]3CC[C@@H]4C[C@@H](O)CC[C@]4(C)[C@H]3CC[C@]2(C)[C@H]1C1=CC(=O)OC1 [Oleandrigenin]	> 100	> 100	> 100	> 100
CO[C@H]1C[C@H](O[C@H]2CC[C@@]3(C)[C@H](CC[C@@H]4[C@@H]3CC[C@]3(C)[C@@H](C5=CC(=O)OC5)[C@@H](OC(C)=O)C[C@]43O)C2)O[C@@H](C)[C@@H]1O [Oleandrin]	> 100	> 100	> 100	> 100
C[C@]12C[C@@H](O)[C@H]3[C@@H](CC[C@]4(O)C[C@@H](O)C[C@@H](O)[C@]34CO)[C@@]1(O)CC[C@@H]2C1=CC(=O)OC1 [Ouabagenin]	30	0.4	30	16
C[C@@H]1O[C@@H](O[C@H]2C[C@@H](O)[C@]3(CO)[C@H]4[C@H](O)C[C@]5(C)[C@@H](C6=CC(=O)OC6)CC[C@]5(O)[C@@H]4CC[C@]3(O)C2)[C@H](O)[C@H](O)[C@H]1O [Ouabain]	25	0.37	20	10
CC(=O)[C@H]1CC[C@H]2[C@@H]3CCC4=CC(=O)CC[C@]4(C)[C@H]3CC[C@]12C [Progesterone]	> 100	2	> 100	> 100
C[C@]12CC[C@H]3[C@@H](CC[C@]4(O)C[C@@H](O)CC[C@]34C=O)[C@@]1(O)CC[C@@H]2C1=CC(=O)OC1 [Strophanthidin]	10	0.2	10	4
